Here are results for 18 compounds from publication PMC7808739, “Repurposing existing drugs: identification of SARS-CoV-2 3C-like protease inhibitors” (Journal of Enzyme Inhibition and Medicinal Chemistry, 2021).

Where a name gives a salt, the structure may show the parent alone. Read-outs that look alike come from different tables or passages of the source.

This assay deals with SARS-CoV-2 3CLpro (Severe acute respiratory syndrome coronavirus 2, UniProt P0DTD1). In words: biochemical. The settings on record: for SARS-CoV-2 3CLpro inhibitor grade in words: grading by IC50 in the IQF peptide assay. Format: biochemical.
[1] abbreviates: IC50, inhibition of SARS-CoV-2 3CLpro activity.
Setting [2] is: 0.25 µM protease, 1.25 µM IQF peptide substrate, drugs 0–100 µM preincubated 1 h at 37 °C, then 3 h, N = 3, mean ± SEM, read-out: IC50, inhibition of SARS-CoV-2 3CLpro activity.

Regarding `Oc1ncnc2[nH]ncc12` [Allopurinol], half-maximal inhibition under setting [1] (IC50) required 3.77 µM. For the compound `NC(=O)C[S@@+]([O-])C(c1ccccc1)c1ccccc1` [Armodafinil], the IC50 under setting [2] amounted to 17.9 µM. With `C=C(c1ccc(C(=O)O)cc1)c1cc2c(cc1C)C(C)(C)CCC2(C)C` [Bexarotene], the “SARS-CoV-2 3CLpro inhibitor grade in words” value is reported as “moderate”. For the same compound, under setting [2], the IC50 was 26.5 µM. `CC(=O)Oc1ccc(C(c2ccc(OC(C)=O)cc2)c2ccccn2)cc1` [Bisacodyl] came in with an IC50 under setting [1] of 17.5 µM. Consider `CN(Cc1ccc(C(C)(C)C)cc1)Cc1cccc2ccccc12` [Butenafine hydrochloride], for which, under setting [1], half-maximal inhibition (IC50) was put at 5.4 µM. With `COCC1=C(C(=O)OC(C)OC(=O)OC(C)C)N2C(=O)[C@@H](NC(=O)/C(=N\OC)c3csc(N)n3)[C@H]2SC1` (stereo partly shown) [Cefpodoxime proxetil], the “SARS-CoV-2 3CLpro inhibitor grade in words” value was “moderate”. For the same compound, the IC50 under setting [1] was determined as 32.4 µM. `O=C(O)COCCN1CCN(C(c2ccccc2)c2ccc(Cl)cc2)CC1` (stereo not shown) [Cetirizine] had an IC50 under setting [1] of 25.6 µM.

Consider `CCCCCCCCCCCCCCCC(=O)O[C@@H]1[C@@H](O)[C@@H](O)[C@@H]([C@H](NC(=O)[C@@H]2C[C@@H](CCC)CN2C)[C@H](C)Cl)O[C@@H]1SC.Cl` [Clindamycin palmitate hydrochloride], for which the “SARS-CoV-2 3CLpro inhibitor grade in words” value is recorded as “moderate”. Moreover, under setting [2], the IC50 is 33.2 µM. On to `CCC(=O)O[C@]1(C(=O)CCl)[C@@H](C)C[C@H]2[C@@H]3CCC4=CC(=O)C=C[C@]4(C)[C@@]3(F)[C@@H](O)C[C@@]21C` [Clobetasol propionate], for which, under setting [2], the IC50 is 18.1 µM. The same measure, in the same setting: the figure for `C=C(CC)C(=O)c1ccc(OCC(=O)O)c(Cl)c1Cl` [Ethacrynic acid] is 1.11 µM. `CC(C)C[C@H](NC(=O)[C@@H](COC(C)(C)C)NC(=O)[C@H](Cc1ccc(O)cc1)NC(=O)[C@H](CO)NC(=O)[C@H](Cc1c[nH]c2ccccc12)NC(=O)[C@H](Cc1cnc[nH]1)NC(=O)[C@@H]1CCC(=O)N1)C(=O)N[C@@H](CCCNC(=N)N)C(=O)N1CCC[C@H]1C(=O)NNC(N)=O` [Goserelin acetate] returned an IC50 under setting [1] of 12 µM.

`COc1ccc2cc([C@H](C)C(=O)O)ccc2c1` [Naproxen] returned an IC50 under setting [1] of 3.45 µM. Take `O=C(c1ccc(OCCN2CCCCC2)cc1)c1c(-c2ccc(O)cc2)sc2cc(O)ccc12` [Raloxifene hydrochloride]: the IC50 under setting [2] turned out to be 5.61 µM. As for `C=CC[N+]1([C@H]2C[C@H]3[C@@H]4CC[C@H]5C[C@H](O)[C@@H](N6CCOCC6)C[C@]5(C)[C@H]4CC[C@]3(C)[C@H]2OC(C)=O)CCCC1` [Rocuronium bromide], the IC50 under setting [2] was found to be 17.5 µM. `CC(C)(C)NC(=O)[C@@H]1C[C@@H]2CCCC[C@@H]2CN1C[C@@H](O)[C@H](Cc1ccccc1)NC(=O)[C@H](CC(N)=O)NC(=O)c1ccc2ccccc2n1` [Saquinavir mesylate]: under setting [1], the IC50 stood at 9.92 µM. As for `CO[C@H]1C[C@@H]2CC[C@@H](C)[C@@](O)(O2)C(=O)C(=O)N2CCCC[C@H]2C(=O)O[C@H]([C@H](C)C[C@@H]2CC[C@@H](O)[C@H](OC)C2)CC(=O)[C@H](C)/C=C(\C)[C@@H](O)[C@@H](OC)C(=O)[C@H](C)C[C@H](C)/C=C/C=C/C=C/1C` [Sirolimus (Rapamycin), Sirolimus], under setting [2], the IC50 came out at 22.3 µM.

Compound `N[C@@H]1C[C@H]1c1ccccc1` [Tranylcypromine hydrochloride] gave an IC50 under setting [1] of 8.64 µM. As to Colistin sulphate, the “SARS-CoV-2 3CLpro inhibitor grade in words” value is on record as “moderate”. For the same compound, under setting [2], the IC50 is 23.2 µM.
